Results on 20 compounds are retold here after patent US8999982B2, “Pharmaceutically active compounds as Axl inhibitors” (Lead Discovery Center GmbH, priority 2010, dated 2015).

Structures are written as SMILES. Some results are limits rather than exact numbers.

Test [1] concerns the target T1, Axl (Homo sapiens (Human), UniProt P30530). Kind of test: Axl binding assay. Here is the method:
Binding of the tracer to the kinase is detected using an EU-labeled anti-tag antibody. […] Binding of an inhibitor to the kinase competes for binding with the tracer, resulting in a loss of FRET-signal. At first a compound according to formula (I) was diluted in 20 mM Hepes pH 8.0, 1 mM DTT, 10 mM MgCl2 and 0.01% Brij35.

Test [2] has as its target T1, Axl. Kind of test: Cellular Axl phosphorylation assay. Conditions: HEK293 cells transfected with Axl cDNA, 1 hour incubation. Type of test: cell-based. On the procedure: 3. Cellular Axl Phosphorylation Assay:
HEK293 embryonal kidney fibroblasts were transfected in 96 wells with a plasmid containing Axl cDNA. As transfection reagent Superfect (Qiagen) was used. Transfection of the sole vector backbone served as negative control of Axl expression. After overnight incubation the cellular supernatant was replaced with fresh medium. On the following day the Axl-expressing cells were incubated for 1 hour with a compound according to formula (I) at the suitable concentrations. […] The mesoscale technology was used for quantification.

Usually IC50 stands for the midpoint of a concentration-inhibition curve.

T1 sequence (P30530 26-894): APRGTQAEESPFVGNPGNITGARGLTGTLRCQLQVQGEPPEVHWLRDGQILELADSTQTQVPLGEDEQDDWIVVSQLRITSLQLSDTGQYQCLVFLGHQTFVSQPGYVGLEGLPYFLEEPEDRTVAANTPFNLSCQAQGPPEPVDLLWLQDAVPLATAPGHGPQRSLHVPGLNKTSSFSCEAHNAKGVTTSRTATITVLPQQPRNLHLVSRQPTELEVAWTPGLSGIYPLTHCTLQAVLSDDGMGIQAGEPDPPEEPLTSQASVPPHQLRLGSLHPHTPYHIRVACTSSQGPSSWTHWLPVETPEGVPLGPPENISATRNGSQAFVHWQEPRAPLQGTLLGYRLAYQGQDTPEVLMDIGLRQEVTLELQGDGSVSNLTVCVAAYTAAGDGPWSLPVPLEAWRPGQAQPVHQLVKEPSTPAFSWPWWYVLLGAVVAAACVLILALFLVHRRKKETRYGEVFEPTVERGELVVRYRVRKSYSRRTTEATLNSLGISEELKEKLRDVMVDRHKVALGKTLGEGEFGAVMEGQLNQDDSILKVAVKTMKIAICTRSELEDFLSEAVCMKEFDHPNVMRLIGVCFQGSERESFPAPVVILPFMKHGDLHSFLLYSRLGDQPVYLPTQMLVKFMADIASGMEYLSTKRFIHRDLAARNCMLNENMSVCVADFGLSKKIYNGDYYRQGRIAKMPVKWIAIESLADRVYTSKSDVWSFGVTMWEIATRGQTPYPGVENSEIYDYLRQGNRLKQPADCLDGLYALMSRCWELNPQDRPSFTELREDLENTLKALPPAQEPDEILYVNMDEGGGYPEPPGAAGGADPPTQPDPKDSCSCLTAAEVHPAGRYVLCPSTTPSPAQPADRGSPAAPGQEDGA

`COc1cc2nccc(Oc3ccc(NC(=O)c4nn(-c5ccc(F)cc5)cc4OC(C)C)cc3)c2cc1OC` [Example 25, N-[4-[(6,7-dimethoxy-4-quinolyl)oxy]phenyl]-1-(4-fluorophenyl)-4-isopropoxy-pyrazole-3-carboxamide]: the 50% inhibitory concentration (IC50) on Axl [1] and against Axl [2] was less than 500 nM in each case.

With `COc1cc2nccc(Oc3ccc(NC(=O)c4nn(-c5ccc(F)cc5)cc4OCC4CC4)cc3)c2cc1OC` [Example 26, 4-(cyclopropylmethoxy)-N-[4-[(6,7-dimethoxy-4-quinolyl)oxy]phenyl]-1-(4-fluorophenyl)pyrazole-3-carboxamide], the IC50 on Axl [1] and against Axl [2] was less than 500 nM in each case.

Consider `CCOc1cn(-c2ccc(F)cc2C)nc1C(=O)Nc1ccc(Oc2ccnc3cc(OC)c(OC)cc23)cc1` [Example 27, N-[4-[(6,7-dimethoxy-4-quinolyl)oxy]phenyl]-4-ethoxy-1-(4-fluoro-2-methyl-phenyl)pyrazole-3-carboxamide], for which the IC50 on Axl [1] and against Axl [2] was less than 500 nM throughout.

Take `CCOc1cn(-c2ccc(F)cc2)nc1C(=O)Nc1ccc(Oc2ccnc3cc(OC)c(OC)cc23)c(C)c1` [Example 28, N-[4-[(6,7-dimethoxy-4-quinolyl)oxy]-3-methyl-phenyl]-4-ethoxy-1-(4-fluorophenyl)pyrazole-3-carboxamide]: the IC50 on Axl [1] and on Axl [2] was less than 500 nM in each case.

For `COc1cc2nccc(Oc3ccc(NC(=O)c4nn(-c5ccc(F)cc5)cc4OC(C)C)cc3C)c2cc1OC` [Example 29, N-[4-[(6,7-dimethoxy-4-quinolyl)oxy]-3-methyl-phenyl]-1-(4-fluorophenyl)-4-isopropoxy-pyrazole-3-carboxamide], the IC50 on Axl [1] and on Axl [2] was less than 500 nM in each case.

Consider `COc1cc2nccc(Oc3ccc(NC(=O)c4nn(-c5ccc(F)cc5)cc4OCC4CC4)cc3C)c2cc1OC` [Example 30, 4-(cyclopropylmethoxy)-N-[4-[(6,7-dimethoxy-4-quinolyl)oxy]-3-methyl-phenyl]-1-(4-fluorophenyl)pyrazole-3-carboxamide], for which the 50% inhibitory concentration (IC50) at Axl [1] and on Axl [2] was less than 500 nM in each case.

As to `CCOc1cn(-c2ccc(F)cc2C)nc1C(=O)Nc1ccc(Oc2ccnc3cc(OC)c(OC)cc23)c(C)c1` [Example 31, N-[4-[(6,7-dimethoxy-4-quinolyl)oxy]-3-methyl-phenyl]-4-ethoxy-1-(4-fluoro-2-methyl-phenyl)pyrazole-3-carboxamide], the IC50 on Axl [1] and against Axl [2] was less than 500 nM in each case.

Consider `CCOc1cn(-c2ccc(F)cc2)nc1C(=O)Nc1ccc(Oc2ccnc3cc(OC)c(OC)cc23)c(Cl)c1` [Example 32, N-[3-chloro-4-[(6,7-dimethoxy-4-quinolyl)oxy]phenyl]-4-ethoxy-1-(4-fluorophenyl)pyrazole-3-carboxamide], for which the IC50 at Axl [1] and at Axl [2] was less than 500 nM in each case.

For the compound `COc1cc2nccc(Oc3ccc(NC(=O)c4nn(-c5ccc(F)cc5)cc4OC(C)C)cc3Cl)c2cc1OC` [Example 33, N-[3-chloro-4-[(6,7-dimethoxy-4-quinolyl)oxy]phenyl]-1-(4-fluorophenyl)-4-isopropoxy-pyrazole-3-carboxamide], the 50% inhibitory concentration (IC50) at Axl [1] and at Axl [2] was less than 500 nM in each case.

As for `COc1cc2nccc(Oc3ccc(NC(=O)c4nn(-c5ccc(F)cc5)cc4OCC4CC4)cc3Cl)c2cc1OC` [Example 34, N-[3-chloro-4-[(6,7-dimethoxy-4-quinolyl)oxy]phenyl]-4-(cyclopropylmethoxy)-1-(4-fluorophenyl)pyrazole-3-carboxamide], the half-maximal inhibitory concentration (IC50) at Axl [1] and against Axl [2] was less than 500 nM in each case.

Consider `CCOc1cn(-c2ccc(F)cc2C)nc1C(=O)Nc1ccc(Oc2ccnc3cc(OC)c(OC)cc23)c(Cl)c1` [Example 35, N-[3-chloro-4-[(6,7-dimethoxy-4-quinolyl)oxy]phenyl]-4-ethoxy-1-(4-fluoro-2-methyl-phenyl)pyrazole-3-carboxamide], for which the half-inhibitory concentration (IC50) on Axl [1] and at Axl [2] was less than 500 nM in each case.

Regarding `COc1cc2nccc(Oc3ccc(NC(=O)c4nn(-c5ccc(F)cc5)cc4CCN(C)C)cc3F)c2cc1OC` [Example 36, N-(4-((6,7-dimethoxyquinolin-4-yl)oxy)-3-fluorophenyl)-4-(2-(dimethylamino)ethyl)-1-(4-fluorophenyl)-1H-pyrazole-3-carboxamide], the 50% inhibitory concentration (IC50) at Axl [1] and against Axl [2] was less than 500 nM each time.

`CCOc1cn(-c2ccc(F)cc2CCN(C)C)nc1C(=O)Nc1ccc(Oc2ccnc3cc(OC)c(OC)cc23)c(F)c1` [Example 37, N-[4-[(6,7-dimethoxy-4-quinolyl)oxy]-3-fluoro-phenyl]-1-[2-(2-dimethylaminoethyl)-4-fluoro-phenyl]-4-ethoxy-pyrazole-3-carboxamide]: the half-maximal inhibitory concentration (IC50) on Axl [1] and at Axl [2] was less than 500 nM throughout.

Turning to `COc1cc2c(Oc3ccc(NC(=O)c4csc(-c5ccccc5)n4)cc3F)ccnc2cc1OCCCN1CCOCC1` [Example 38, N-[3-fluoro-4-[[6-methoxy-7-(3-morpholinopropoxy)-4-quinolyl]oxy]phenyl]-2-phenyl-thiazole-4-carboxamide], the IC50 on Axl [1] and on Axl [2] was less than 500 nM throughout.

For the compound `COc1cc2c(Oc3ccc(NC(=O)c4nn(C)cc4Br)cc3F)ccnc2cc1OCCCN1CCOCC1` [Example 39, 4-bromo-N-[3-fluoro-4-[[6-methoxy-7-(3-morpholinopropoxy)-4-quinolyl]oxy]phenyl]-1-methyl-pyrazole-3-carboxamide], the IC50 is 500 to 5000 nM at Axl [1] and less than 500 nM at Axl [2].

Turning to `COc1cc2c(Oc3ccc(NC(=O)c4ccn(C)n4)cc3F)ccnc2cc1OCCCN1CCOCC1` [Example 40, N-[3-fluoro-4-[[6-methoxy-7-(3-morpholinopropoxy)-4-quinolyl]oxy]phenyl]-1-methyl-pyrazole-3-carboxamide], the results for the IC50 on Axl [1] and against Axl [2] were 500 to 5000 nM and less than 500 nM, respectively.

For `COc1cc2c(Oc3ccc(NC(=O)c4cc(C)n(C(C)(C)C)n4)cc3F)ccnc2cc1OCCCN1CCOCC1` [Example 41, 1-tert-butyl-N-[3-fluoro-4-[[6-methoxy-7-(3-morpholinopropoxy)-4-quinolyl]oxy]phenyl]-5-methyl-pyrazole-3-carboxamide], the half-maximal inhibitory concentration (IC50) at Axl [1] and against Axl [2] was less than 500 nM in each case.

Regarding `COc1cc2c(Oc3ccc(NC(=O)c4cc(C)n(C)n4)cc3F)ccnc2cc1OCCCN1CCOCC1` [Example 42, N-[3-fluoro-4-[[6-methoxy-7-(3-morpholinopropoxy)-4-quinolyl]oxy]phenyl]-1,5-dimethyl-pyrazole-3-carboxamide], the concentration for half-maximal inhibition (IC50) at Axl [1] and against Axl [2] was less than 500 nM in each case.

`CCOc1cn(-c2ccc(F)cc2C)nc1C(=O)Nc1ccc(Oc2ccnc3cc(OCCCN4CCOCC4)c(OC)cc23)c(F)c1` [Example 43, 4-ethoxy-N-[3-fluoro-4-[[6-methoxy-7-(3-morpholinopropoxy)-4-quinolyl]oxy]phenyl]-1-(4-fluoro-2-methyl-phenyl)pyrazole-3-carboxamide]: the half-maximal inhibitory concentration (IC50) on Axl [1] and against Axl [2] was less than 500 nM throughout.

Consider `COc1cc2c(Oc3ccc(NC(=O)c4nn(-c5ccc(F)cc5)cc4OC)cc3F)ccnc2cc1OCCCN1CCOCC1` [Example 44, N-[3-fluoro-4-[[6-methoxy-7-(3-morpholinopropoxy)-4-quinolyl]oxy]phenyl]-1-(4-fluorophenyl)-4-methoxy-pyrazole-3-carboxamide], for which the IC50 on Axl [1] and at Axl [2] was less than 500 nM each time.
